According to patent publication US6414014B1 (Bristol-Myers Squibb Company, priority 1992, dated 2002):

Experiments:
[1] = Hematologic toxicity (myelotoxicity) in the randomized taxol study, weekly blood counts; assay type: in vivo, patients
Protocol: Responses were evaluated every two cycles.
Eligible patients were randomized according to a computerized randomization log. During therapy, hematology data (hemoglobin, white blood cell count, granulocytes and platelets) were collected, and toxicity assessments were continuously made. After each cycle, a physical history update was recorded, as well as tumor measurement, performance status (ECOG), hematology, chemistry (serum creatinine, billirubin, alkaline phosphatase, (SLOT (AST), CA125) and a toxicity assessment. A quality of life assessment was also made after each cycle, and every two months until six months after treatment stopped.
White blood cell (WBC) counts, absolute neutrophil count (ANC), platelet counts, and hemoglobin (Hb) concentration were the primary variables used to evaluate treatment related myelosuppression. The World Health Orgination, WHO, grades of nadir for the entire study population of 157 patients during course 1 are presented in the table below. Leukopenia and neutropenia were the most frequent and severe hemotologic adverse effects observed during the first couse of treatment. 53% (83/156) of the patients had Grade III or IV neutropenia, while 39% (61/157) had Grade III or IV leukopenia.

[2] = system: drug-refractory ovarian cancer; settings: in vivo; cited from earlier work
[3] = arm 135/3 (mg/m^2/infusion hours), n = 39, course 1
[4] = arm 135/24 (mg/m^2/infusion hours), n = 44, course 1
[5] = arm 175/3 (mg/m^2/infusion hours), n = 29, course 1
[6] = arm 175/4 (mg/m^2/infusion hours), n = 45, course 1

## CC(=O)O[C@H]1C(=O)[C@@]2(C)[C@H]([C@H](OC(=O)c3ccccc3)[C@]3(O)C[C@H](OC(=O)[C@H](O)[C@@H](NC(=O)c4ccccc4)c4ccccc4)C(C)=C1C3(C)C)[C@]1(OC(C)=O)CO[C@@H]1C[C@@H]2O [taxol]
[1]; [3]
  AMC Count, WHO grade III nadir, patients: 4 (10) n (%)
  AMC Count, WHO grade IV nadir, patients: 1 (3) n (%)
  Platelet Count, WHO grade 0 nadir, patients: 36 (92) n (%)
  Platelet Count, WHO grade I nadir, patients: 2 (5) n (%)
  Platelet Count, WHO grade II nadir, patients: 1 (3) n (%)
  Platelet Count, WHO grade III nadir, patients: 0 n (%)
  Platelet Count, WHO grade IV nadir, patients: 0 n (%)
  WBC Count, WHO grade 0 nadir, patients: 15 (38) n (%)
  WBC Count, WHO grade I nadir, patients: 13 (33) n (%)
  WBC Count, WHO grade II nadir, patients: 7 (18) n (%)
  WBC Count, WHO grade III nadir, patients: 3 (8) n (%)
  WBC Count, WHO grade IV nadir, patients: 1(3) n (%)
[1]; [4]
  AMC Count, WHO grade 0 nadir, patients: 6 (14) n (%)
  AMC Count, WHO grade I nadir, patients: 2 (15) n (%)
  AMC Count, WHO grade II nadir, patients: 7 (16) n (%)
  AMC Count, WHO grade III nadir, patients: 6 (14) n (%)
  AMC Count, WHO grade IV nadir, patients: 23 (52) n (%)
  Platelet Count, WHO grade 0 nadir, patients: 43 (98) n (%)
  Platelet Count, WHO grade I nadir, patients: 1 (2) n (%)
  Platelet Count, WHO grade II nadir, patients: 0 n (%)
  Platelet Count, WHO grade III nadir, patients: 0 n (%)
  Platelet Count, WHO grade IV nadir, patients: 0 n (%)
  WBC Count, WHO grade 0 nadir, patients: 4 (9) n (%)
  WBC Count, WHO grade I nadir, patients: 5 (11) n (%)
  WBC Count, WHO grade II nadir, patients: 11 (25) n (%)
  WBC Count, WHO grade III nadir, patients: 20 (46) n (%)
  WBC Count, WHO grade IV nadir, patients: 4 (9) n (%)
[1]; [5]
  AMC Count, WHO grade 0 nadir, patients: 11 (38) n (%)
  AMC Count, WHO grade I nadir, patients: 2 (7) n (%)
  AMC Count, WHO grade II nadir, patients: 3 (10) n (%)
  AMC Count, WHO grade III nadir, patients: 6 (21) n (%)
  AMC Count, WHO grade IV nadir, patients: 7 (24) n (%)
  Platelet Count, WHO grade 0 nadir, patients: 29 (100) n (%)
  Platelet Count, WHO grade I nadir, patients: 0 n (%)
  Platelet Count, WHO grade II nadir, patients: 0 n (%)
  Platelet Count, WHO grade III nadir, patients: 0 n (%)
  Platelet Count, WHO grade IV nadir, patients: 0 n (%)
  WBC Count, WHO grade 0 nadir, patients: 11 (38) n (%)
  WBC Count, WHO grade I nadir, patients: 6 (21) n (%)
  WBC Count, WHO grade II nadir, patients: 7 (24) n (%)
  WBC Count, WHO grade III nadir, patients: 5 (17) n (%)
  WBC Count, WHO grade IV nadir, patients: 0 — n (%)
[1]; [6]
  AMC Count, WHO grade 0 nadir, patients: 2 (5) n (%)
  AMC Count, WHO grade I nadir, patients: 1 (2) n (%)
  AMC Count, WHO grade II nadir, patients: 5 (11) n (%)
  AMC Count, WHO grade III nadir, patients: 8 (18) n (%)
  AMC Count, WHO grade IV nadir, patients: 28 (63) n (%)
  Platelet Count, WHO grade 0 nadir, patients: 39 (87) n (%)
  Platelet Count, WHO grade I nadir, patients: 3 (7) n (%)
  Platelet Count, WHO grade II nadir, patients: 1 (2) n (%)
  Platelet Count, WHO grade III nadir, patients: 1 (2) n (%)
  Platelet Count, WHO grade IV nadir, patients: 1 (2) n (%)
  WBC Count, WHO grade 0 nadir, patients: 1 (2) n (%)
  WBC Count, WHO grade I nadir, patients: 5 (11) n (%)
  WBC Count, WHO grade II nadir, patients: 11 (25) n (%)
  WBC Count, WHO grade III nadir, patients: 22 (49) n (%)
  WBC Count, WHO grade IV nadir, patients: 6 (13) n (%)
[1]; course 1
  severe leukopenia (grade 3 and grade 4 pooled), 24-hour versus 3-hour infusion: more frequently
[1]; course 1, 61/157, all arms
  patients with Grade III or IV leukopenia: 39%
[1]; course 1, 83/156, all arms
  patients with Grade III or IV neutropenia: 53%
[1]; course 1, two patients, all arms
  patients with severe thrombocytopenia: 1%
[1]; high dose arms, 55/74
  incidence of severe neutropenia: 74%
[1]; long-term infusion arms
  incidence of severe neutropenia: 85%
[1]; long-term infusion, 26/55
  anemia of any grade in patients with normal baseline Hb values: 47%
[1]; low dose arms, 43/83
  incidence of severe neutropenia: 52%
[1]; short-term infusion
  anemia of any grade in patients with normal baseline Hb values: 28%
[1]; short-term infusion arms
  incidence of severe neutropenia: 32%
[2]
  activity against drug-refractory ovarian cancer: active agent
